Experimental data: article PMC3764137, “Sulphamoylated 2-Methoxyestradiol Analogues Induce Apoptosis in Adenocarcinoma Cell Lines” (PLoS ONE, 2013)
Entries after “also recorded” stand apart in the source; their conditions may differ.

Legend:
Type in all cases: cell-based, human
HeLa cells [1] = experiment: Cell number determination by crystal violet staining; settings: for cell growth: 24 h; for concentration that significantly inhibits HeLa proliferation: 24 h of exposure
Procedure: Crystal violet is a method used to determine the number of cells by staining the deoxyribonucleic acid (DNA). Gillies et al. (1986) used crystal violet to quantify cell number in monolayer cultures as a function of the absorbance of the dye taken up by the cells. A dose-dependent study was chosen with a concentration range of 0.1–25 μM since it was previously observed in our laboratory that this concentration series exerts antiproliferative activity in HeLa cells. Exponentially growing HeLa cells were seeded in 96 well tissue culture plates at a cell density of 5,000 cells per well. Cells were incubated at 37°C in a humidified atmosphere containing 5% CO2 for 24 h to allow for attachment. To establish the starting number of cells, a baseline determination was conducted before exposure. Subsequently, the medium was discarded and cells were exposed to the sulphamoylated 2ME2 analogues at a concentration series of 0.1–25 μM for the 24 h at 37°C. Vehicle-treated controls were also included. Cells were fixed with 100 µl of 1% gluteraldehyde (incubation for 15 min at room temperature). Gluteraldehyde was discarded and cells were stained using 100 µl 0.1% crystal violet (incubated at room temperature for 30 min). Excedent crystal violet was discarded and the 96 well plate was submersed under running water. Cells were solubilized using 200 µl 0.2% Triton X-100 and incubated at room temperature for 30 min. Solution (100 µl) was transferred to a new microtitre plate. Afterwards, the absorbance was determined at 570 nm using an ELx800 Universal Microplate Reader available from Bio-Tek Instruments Inc. (Vermont, United States of America).

HeLa cells [2] = experiment: Cytochrome c release (FlowCellect, flow cytometry); settings: 0.5 μM analogues (2-methoxyestradiol-bis-sulphamate 0.55 μM), 24 h
Procedure: (§1) This kit utilizes a unique set of buffers that selectively permeabilizes the […] without affecting the mitochondrial membrane. […] Cells (500,000) were seeded with an overnight attachment policy. After 24 h of exposure to 0.5 μM of the sulphamoylated 2ME2 analogues, cells were detached using trypsin and centrifuged at 13,000×g. Cells (500,000) were resuspended in PBS, centrifuged and resuspended in permeabilization buffer (according to supplier's instructions) for 10 min on ice. Subsequently cells were centrifuged, resuspended in 100 µl fixation buffer (according to supplier's instructions) for 20 min at room temperature, centrifuged again and resuspended in blocking buffer (150 µl). After another centrifugation step, cells were centrifuged and resuspended in blocking buffer (twice). Anti-cytochrome c-FITC (10 µl) was added to each sample and samples were incubated for 30 min at room temperature. Cells were centrifuged and blocking buffer (100 µl) was added. After centrifugation, blocking buffer (200 µl) was added to the samples for analysis via flow cytometry (FC500 System flow cytometer, Beckman Coulter South Africa (Pty) Ltd). Cells presenting with cytochrome c release were detected in the fluorescein isothiocyanate (FITC) channel (FL1) showing diffused green fluorescence. Data from at least 10 000 cells were analyzed by means of Cyflogic version 1.2.1 software (Pertu Therho, Turko, Finland).

MDA-MB-231 cells [3] = experiment: Cytochrome c release (FlowCellect, flow cytometry); settings: MDA-MB-231, 0.5 μM analogues (2-methoxyestradiol-bis-sulphamate 0.55 μM), 24 h
Procedure: as §1

caspase-8 = experiment: FLICE/caspase 8 colorimetric assay; settings: 0.5 μM, 24 h
Procedure: Possible activation of caspase 3, -6 and -8 was investigated by means of caspase 3, caspase 6 and FLICE/caspase 8 colorimetric kits, respectively. Cells (1,000,000) were seeded with an overnight attachment policy. After 24 h of exposure to 0.5 μM of the sulphamoylated 2ME2 analogues, cells were detached with trypsin and centrifuged at 13,000× g. Cells (500,000) were resuspended in 50 µl of chilled cell lysis buffer and incubated on ice for 10 min. Cells were centrifuged at 10,000×g for a min. Supernatant was transferred to a fresh tube and put on ice. After determination of the protein concentration using the bicinchoninic acid (BCA) protein assay (Thermo Fisher Scientific, Johannesburg, South Africa), 100 µg protein/50 µl cell lysis buffer was mixed with 50 µl 2X reaction buffer (containing 10 mM Dithiothreitol (DTT)). Ac-Asp-Glu-Val-Asp-p-nitroanilide (Ac-DEVD-pNA) (5 µl of 4 mM) (caspase-3-specific substrate), or 5 µl 4 mM […] (Ac-VEID-pNA) (caspase-6-specific substrate), or 5 µl 4 mM Ac-Ile-Glu-Thr-Asp-p-nitroanilide (Ac-IETD-pNA) (caspase-8-specific substrate) was added and the mixture was incubated at 37°C for 120 min (200 µM final concentration). Absorbance was determined at 405 nm on the ELx800 Universal Microplate Reader available from Bio-Tek Instruments Inc. (Vermont, United States of America).

HeLa cells [4] = experiment: Double immunofluorescence of intracellular microtubules; settings: 24 h, 0.189 μM ESE-15-one, 0.5 μM EMBS and ESE-16, 1μM colchicine
Procedure: (§2) In order to visualize the effect of the 2ME2 analogues on microtubule dynamics and integrity, a double immunofluorescence technique using antibodies against tyrosinated and detyrsosinated tubulin was conducted as described by Paturle-Lafanechère et al. (2004). HeLa and MDA-MB-231 cells were seeded onto sterilized coverslips and allowed to grow to 80% confluency for 48 h. Cells were exposed to 0.189 μM ESE-15-one, 0.5 μM EMBS and ESE-16 along with DMSO (negative control) and 1μM colchicine as a positive control for 24 h. Cells were permeablised permeabilized with warmed OPT buffer (80 mmol/L Pipes, […], […], 0.5% Triton X-100 and glycerol 10%, pH 6.8), followed by fixation in ice-cold methanol at −20°C and were subsequently incubated with the primary antibody cocktail (PBS containing anti-detyrosinated tubulin (L4), anti-[…], BSA 0.3%, tween 0.1%). After incubation, cells were incubated with the secondary antibodies, namely Alexa 488 (Invitrogen) and Cy3 (Jackson ImmunoResearch laboratories). Samples were visualized using a Zeiss AxioImager Z1 microscope controlled by Axiovision softwared (Carl Zeiss) (X63 oil objective). Images were captured using an Ocra R2 N/B camera (Hamamatsu) and assessed for microtubule integrity and ratio of tyrosinated to detyrosinated tubulin.

MDA-MB-231 cells [5] = experiment: as above; settings: MDA-MB-231, 24 h; 0.189 μM ESE-15-one, 0.5 μM EMBS and ESE-16, 1μM colchicine
Procedure: as §2

[6] = 0.5 µM, compared to vehicle-treated cells

SMILES | cell growth (HeLa cells [1]; 0.1 µM) | cell growth (HeLa cells [1]; [6]) | cell growth (HeLa cells [1]; 5 µM and 10 µM) | concentration that significantly inhibits HeLa proliferation (HeLa cells [1]) | Cytochrome c in cytoplasm (cells with cytochrome c release) (HeLa cells [2]) | Cytochrome c in cytoplasm (cells with cytochrome c release) (MDA-MB-231 cells [3]) | caspase-8 activity increase compared to vehicle-treated cells (caspase-8) | microtubule integrity (HeLa cells [4]) | microtubule integrity (MDA-MB-231 cells [5])
CCc1cc2c(cc1OS(N)(=O)=O)CC[C@@H]1C2CC[C@]2(C)[C@@H](OS(N)(=O)=O)CC[C@@H]12 (stereo partly drawn) [EMBS, (8R, 13S, 14S, 17S)-2-ethyl-13-methyl-7,8,9, 11, 12,13, 14, 15, 16, 17-decahydro-6H-cyclopenta [a] phenanthrane-3, 17-diyl bis (sulphamate)] | 92.32% | 40.01% | slight decrease in cell growth | 0.5 µM | 21–23% | 21–23% | 2.6 fold | microtubule abrogation; also recorded: fragmented microtubules | detyrosinated microtubule fragments
CCc1cc2c(cc1OS(N)(=O)=O)CC[C@@H]1[C@@H]2CC[C@]2(C)C(=O)C=C[C@@H]12 [ESE-15-one, 2-Ethyl-3-O-sulphamoyl-estra-1,3,5 (10) 15-tetraene-3-ol-17one] | 80.31% | 40.87% | slight decrease in cell growth | 0.5 µM | 35% | 34% | 1.7 fold | microtubule abrogation; also recorded: altered microtubule morphology | detyrosinated microtubule fragments
